Assay type in all cases: functional
Assay [1] deals with Tetranychus urticae. Briefly: Insecticidal activity against Tetranychus urticae (two-spotted spider mite).
The test system of assay [2] is Tetranychus evansi. Kind of assay: Insecticidal activity against Tetranychus evansi R2 in clean French bean leaf assessed as mortality at 26 degC and 16 hr day length measured after 48 hr by microimmersion protocol.
The subject of assay [3] is Tetranychus evansi. Kind of assay: Insecticidal activity against Tetranychus evansi R1 in clean French bean leaf assessed as mortality at 26 degC and 16 hr day length measured after 48 hr by microimmersion protocol.
In assay [4] the test system is Tetranychus evansi. Briefly: Insecticidal activity against Tetranychus evansi TOR in clean French bean leaf assessed as mortality at 26 degC and 16 hr day length measured after 48 hr by microimmersion protocol.
Assay [5] deals with Tetranychus evansi. Briefly: Insecticidal activity against Tetranychus evansi ST JEA in clean French bean leaf assessed as mortality at 26 degC and 16 hr day length measured after 48 hr by microimmersion protocol.
Assay [6] has as its system Tetranychus urticae. Briefly: Insecticidal activity against Tetranychus urticae LS-VL (two-spotted spider mite).

Each structure is given as a SMILES string. Values after ≈ are worked out from the molar mass of the structure shown.

Turning to `CCOP(=S)(OCC)Oc1nc(Cl)c(Cl)cc1Cl` [CHLORPYRIFOS], the LC50 (usually the concentration that kills 50% of the test population) worked out at 4 µg/mL (≈ 0.0114 mM) in the assay on Tetranychus urticae [1]; 4380 µg/mL (≈ 12.5 mM) with Tetranychus evansi [2]; 3780 µg/mL (≈ 10.8 mM) with Tetranychus evansi [3]; 4530 µg/mL (≈ 12.9 mM) in the assay on Tetranychus evansi [4]; 3760 µg/mL (≈ 10.7 mM) in the assay on Tetranychus evansi [5].

`Cc1c(COC(=O)[C@@H]2[C@H](/C=C(\Cl)C(F)(F)F)C2(C)C)cccc1-c1ccccc1` (relative stereo) [BIFENTHRIN]: the LC50 was found to be 5.5 µg/mL (≈ 0.013 mM) in the assay with Tetranychus urticae [6]; 3560 µg/mL (≈ 8.42 mM) with Tetranychus evansi [2]; 1860 µg/mL (≈ 4.39 mM) with Tetranychus evansi [3]; 92 µg/mL (≈ 0.218 mM) with Tetranychus evansi [4]; 135 µg/mL (≈ 0.318 mM) in the assay on Tetranychus evansi [5].

As for `CC[C@H](C)[C@H]1O[C@]2(C=C[C@@H]1C)C[C@@H]1C[C@@H](C/C=C(\C)[C@@H](O[C@H]3C[C@H](OC)[C@@H](O[C@H]4C[C@H](OC)[C@@H](O)[C@H](C)O4)[C@H](C)O3)[C@@H](C)/C=C/C=C3\CO[C@@H]4[C@H](O)C(C)=C[C@@H](C(=O)O1)[C@]34O)O2.CO[C@H]1C[C@H](O[C@H]2[C@H](C)O[C@@H](O[C@@H]3/C(C)=C/C[C@@H]4C[C@@H](C[C@]5(C=C[C@H](C)[C@@H](C(C)C)O5)O4)OC(=O)[C@@H]4C=C(C)[C@@H](O)[C@H]5OC/C(=C\C=C\[C@@H]3C)[C@]54O)C[C@@H]2OC)O[C@@H](C)[C@@H]1O` [ABAMECTIN], the LC50 was found to be 0.19 µg/mL in the assay on Tetranychus evansi [2], 0.18 µg/mL with Tetranychus evansi [3], 0.24 µg/mL in the assay on Tetranychus evansi [4] and 0.23 µg/mL in the assay on Tetranychus evansi [5].
